The values that follow come from US20080293772A1, “SALTS OF PICOTAMIDE” (priority 2007, published 2008).

Data set [1] can be described thus: Picotamide stability under acidic conditions (HPLC content). As to conditions: hydrochloric acid 1 M, three days. Format: physicochemical. The procedure:
The sample is dissolved in methanol/water 1:1.
Picotamide is dissolved in hydrochloric acid 1 M and stored at room temperature and 50° C. for three days.

The conditions of data set [2]: man, after oral administration; cited from earlier work.
Data set [3] is described as follows: Picotamide salt stability, degradation determined by HPLC. The procedure:
If a spontaneous crystallization occurs after the salt formation, the solid is isolated by filtration.
Column: Phenomenex Hypersil C18-BDS, 4.6×150 mm, 5 μm, flow 1 ml/min, 25° C., detection at 254 nm. Ammonium acetate buffer 10 mM, pH 9, containing 15% methanol. After 17 min, the percentage of methanol is increased to 80%. The sample is dissolved in methanol/water 1:1.
Salts were formed in THF.

Structures can show the parent of a compound that is named as a salt. Where two headings read alike, the source gives them in different places.

As for `COc1ccc(C(=O)NCc2cccnc2)cc1C(=O)NCc1cccnc1` [Picotamide, N,N′-bis-(3-picolyl)-4-methoxyisophthalamide], the values for the picotamide content in data set [1] (50° C.) and in data set [1] (room temperature) were 98.1% and 99.2%, respectively.

With `COc1ccc(C(=O)NCc2cccnc2)cc1C(=O)NCc1cccnc1` [anhydrous picotamide], the “time needed to reach the maximum inhibitory effect” value in data set [2] is 8 h.

On to `COc1ccc(C(=O)NCc2cccnc2)cc1C(=O)NCc1cccnc1` [hydrochloride], for which, in data set [3], the Degradation is 0.6%.

For the compound `CC(=O)O` [Acetate], the Degradation in data set [3] turned out to be 0.6%.

In the case of fumarate, the Degradation in data set [3] (salts formed in THF, HPLC) was 6.7%.

For the compound `O=S(=O)(O)O` [sulfate], the Degradation in data set [3] was 0.1%.

Take oxalate: the Degradation in data set [3] (salts formed in THF, HPLC) is listed as 0.4%.

Regarding `COc1ccc(C(=O)NCc2cccnc2)cc1C(=O)NCc1cccnc1` [hydrochloride (anhydrous)], the Degradation in data set [3] was determined as 0.0%.

Turning to tartrate [reference compound], the Degradation in data set [3] (salts formed in THF, HPLC) is given as 0.1%.

For the compound citrate, the Degradation in data set [3] (salts formed in THF, HPLC) was determined as 0.2%.

For `Br` [hydrobromide], the Degradation in data set [3] is given as 35%.

maleate: the Degradation in data set [3] (salts formed in THF, HPLC) is listed as 11.5%.
